In PubChem BioAssay (NCI):
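Briefly, cells in 96-well plates were exposed to five compound concentrations for 48 h, and endpoints were estimated by linear interpolation. At the TGI there is no net growth.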

How the values were obtained:
Assay in all cases: NCI anticancer screen, dose series, 48 h
786-0 renal = system: 786-0 renal
A549 NSCLC = system: A549 NSCLC
ACHN renal = system: ACHN renal
BT-549 breast = system: BT-549 breast
CAKI-1 renal = system: CAKI-1 renal
CCRF-CEM leukemia = system: CCRF-CEM leukemia
COLO 205 colon = system: COLO 205 colon
DU-145 prostate = system: DU-145 prostate
EKVX NSCLC = system: EKVX NSCLC
HCC-2998 colon = system: HCC-2998 colon
HCT-116 colon = system: HCT-116 colon
HCT-15 colon = system: HCT-15 colon
HL-60(TB) leukemia = system: HL-60(TB) leukemia
HOP-62 NSCLC = system: HOP-62 NSCLC
HOP-92 NSCLC = system: HOP-92 NSCLC
HT29 colon = system: HT29 colon
IGROV1 ovarian = system: IGROV1 ovarian
K-562 leukemia = system: K-562 leukemia
KM12 colon = system: KM12 colon
LOX IMVI melanoma = system: LOX IMVI melanoma
M14 melanoma = system: M14 melanoma
MCF7 breast = system: MCF7 breast
MDA-MB-231 breast = system: MDA-MB-231 breast
MDA-MB-435 = system: MDA-MB-435
MDA-N = system: MDA-N
MOLT-4 leukemia = system: MOLT-4 leukemia
NCI-H226 lung = system: NCI-H226 lung
NCI-H23 lung = system: NCI-H23 lung
NCI-H460 lung = system: NCI-H460 lung
NCI/ADR-RES ovarian = system: NCI/ADR-RES ovarian
OVCAR-3 ovarian = system: OVCAR-3 ovarian
OVCAR-4 ovarian = system: OVCAR-4 ovarian
OVCAR-5 ovarian = system: OVCAR-5 ovarian
OVCAR-8 ovarian = system: OVCAR-8 ovarian
PC-3 prostate = system: PC-3 prostate
RPMI-8226 leukemia = system: RPMI-8226 leukemia
RXF 393 renal = system: RXF 393 renal
SF-295 CNS = system: SF-295 CNS
SF-539 CNS = system: SF-539 CNS
SK-MEL-2 melanoma = system: SK-MEL-2 melanoma
SK-MEL-28 melanoma = system: SK-MEL-28 melanoma
SK-MEL-5 melanoma = system: SK-MEL-5 melanoma
SK-OV-3 ovarian = system: SK-OV-3 ovarian
SN12C renal = system: SN12C renal
SNB-19 CNS = system: SNB-19 CNS
SNB-75 CNS = system: SNB-75 CNS
SR leukemia = system: SR leukemia
SW-620 colon = system: SW-620 colon
T-47D breast = system: T-47D breast
TK-10 renal = system: TK-10 renal
U251 CNS = system: U251 CNS
UACC-257 melanoma = system: UACC-257 melanoma
UACC-62 melanoma = system: UACC-62 melanoma
UO-31 renal = system: UO-31 renal

## COc1cccc(-c2cccc(SC)n2)n1
786-0 renal
  TGI: 88.3 µM
A549 NSCLC
  TGI: > 100 µM
ACHN renal
  TGI: > 100 µM
BT-549 breast
  TGI: > 100 µM
CAKI-1 renal
  TGI: > 100 µM
CCRF-CEM leukemia
  TGI: 41.5 µM
COLO 205 colon
  TGI: 40.2 µM
DU-145 prostate
  TGI: > 100 µM
EKVX NSCLC
  TGI: 97.3 µM
HCC-2998 colon
  TGI: 75.5 µM
HCT-116 colon
  TGI: > 100 µM
HCT-15 colon
  TGI: > 100 µM
HL-60(TB) leukemia
  TGI: 31 µM
HOP-62 NSCLC
  TGI: > 100 µM
HOP-92 NSCLC
  TGI: 67.4 µM
HT29 colon
  TGI: 93.8 µM
IGROV1 ovarian
  TGI: > 100 µM
K-562 leukemia
  TGI: > 100 µM
KM12 colon
  TGI: > 100 µM
LOX IMVI melanoma
  TGI: > 100 µM
M14 melanoma
  TGI: > 100 µM
MCF7 breast
  TGI: > 100 µM
MDA-MB-231 breast
  TGI: > 100 µM
MDA-MB-435
  TGI: 86.8 µM
MDA-N
  TGI: > 100 µM
MOLT-4 leukemia
  TGI: > 100 µM
NCI-H226 lung
  TGI: 31.6 µM
NCI-H23 lung
  TGI: > 100 µM
NCI-H460 lung
  TGI: > 100 µM
NCI/ADR-RES ovarian
  TGI: > 100 µM
OVCAR-3 ovarian
  TGI: 61.1 µM
OVCAR-4 ovarian
  TGI: > 100 µM
OVCAR-5 ovarian
  TGI: > 100 µM
OVCAR-8 ovarian
  TGI: > 100 µM
PC-3 prostate
  TGI: > 100 µM
RPMI-8226 leukemia
  TGI: 78.1 µM
RXF 393 renal
  TGI: 63 µM
SF-295 CNS
  TGI: > 100 µM
SF-539 CNS
  TGI: > 100 µM
SK-MEL-2 melanoma
  TGI: > 100 µM
SK-MEL-28 melanoma
  TGI: > 100 µM
SK-MEL-5 melanoma
  TGI: 44 µM
SK-OV-3 ovarian
  TGI: > 100 µM
SN12C renal
  TGI: > 100 µM
SNB-19 CNS
  TGI: > 100 µM
SNB-75 CNS
  TGI: > 100 µM
SR leukemia
  TGI: 55.5 µM
SW-620 colon
  TGI: > 100 µM
T-47D breast
  TGI: 75.1 µM
TK-10 renal
  TGI: > 100 µM
U251 CNS
  TGI: > 100 µM
UACC-257 melanoma
  TGI: 98.9 µM
UACC-62 melanoma
  TGI: > 100 µM
UO-31 renal
  TGI: > 100 µM
